The source of these data is patent publication US20140350081A1, “INSECT G-COUPLED RECEPTORS USEFUL AS TARGETS FOR INSECTICIDES AND COMPOUNDS AND REAGENTS IDENTIFIED USING THE SAME” (priority 2011, published 2014).

For one data set, the system named is Ae. aegypti larvae. Description: whole plant or invertebrate. Format: in vivo. The conditions noted are these: Aedes aegypti; 400 μM, L4 larvae, 24 hours post-treatment; read-out: average larval mortality. On the procedure: Single dose-point and dose response in vivo mosquito bioassays were used to assess the toxicity of selected AaDop2 receptor antagonists identified in the chemical screen. Larvae of Ae. aegypti (Liverpool strain) were reared under standard laboratory conditions on a 12 hr day/night cycle at 75% RH and 28° C., and bioassays were conducted at room temperature (22-24° C.). Larvae were transferred from standard rearing trays into six-well tissue culture plates (Corning, Inc. Corning, N.Y.) using a small plastic pipette. Ten L4-stage larvae were included per well, each containing five ml of de-ionized water and an assigned drug concentration. Controls were conducted similarly but lacked a drug treatment. Bioassays employed a double-blind experimental design, and larval mortality was scored 24 hr following administration of drugs. Single dose-point assays were conducted using 400 μM drug and included three biological replicates each consisting of 100 larvae.

Data set [1] deals with T1, Isdop1 (Ixodes scapularis, UniProt A0ACM8FJJ0). As to the kind of experiment: cAMP accumulation confirmation assay, cells stably expressing Isdop1. Format: cell-based.
Data set [2] deals with T2, human D1 dopamine receptor (hD1) (Homo sapiens, UniProt P21728).
T2 construct: expressed in transfected cells
As to the kind of experiment: cAMP accumulation secondary assay, hD1-expressing cells. Format: cell-based, H. sapiens. For orientation: Changes in cAMP serve as a functional read-out for many G protein-coupled receptors.

Data set [3] addresses T3, AaDOP2 (Aedes aegypti, UniProt H6D5H2).
Data set [4] deals with T3, AaDOP2. As to the kind of experiment: LOPAC1280 antagonist screen in HEK-CRELuc-Aadop2 cells. The conditions noted are these: 10 μM compound, 300 nM dopamine, quadruplicate. Format: cell-based.
The target in data set [5] is T3, AaDOP2. Description: HTRF cAMP accumulation concentration response assay (Cisbio Dynamic 2). Format: cell-based. (TR-FRET usually uses a lanthanide donor and a delayed reading to cut background.)
Data set [6] concerns the target T4, Isdop2 (Ixodes scapularis, UniProt A0ACM8DGL0). As to the kind of experiment: cAMP accumulation confirmation assay, cells stably expressing Isdop2. Format: cell-based.
For data set [7], the target named is T4, Isdop2. As to the kind of experiment: cell-based. The conditions noted are these: read-out: % Inhibition (of response to dopamine), Isdop2 screen.
Data set [8] has as its system Ae. aegypti L3 larvae. Description: whole plant or invertebrate. As to conditions: Aedes aegypti.
The subject of data set [9] is adult male Blatella germanica. As to the kind of experiment: Cockroach contact assay (topical application). Format: in vivo. As to conditions: 200 mM compound. A digest of the protocol: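 Adult male German cockroaches (Blatella germanica) were dosed by topical application of compound to the ventral thorax, giving an effective dose of 50-80 μg depending on compound. Each test was a single-point dose run in triplicate in 24-well plates. Insects were incubated at 22° C. and scored for mortality, with commercial insecticides included as positive controls.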

For data set [10], the system named is adult male Blatella germanica. As to the kind of experiment: Cockroach assay of Table 16 (title contact assay, text feeding assay). The conditions noted are these: 200 mM compound. Format: in vivo.
The subject of data set [11] is adult Reticulitermes flavipes. As to the kind of experiment: Termite immersion assay. Format: in vivo. The conditions noted are these: Reticulitermes flavipes, immersion, adult termite; for mortality at 100 µM: 100 µM compound (Fipronil 500 μM); for mortality at 100000 µM: 100 mM compound (Fipronil 500 μM).
The test system of data set [12] is Ae. aegypti L3 larvae. Description: Ae. aegypti L3 concentration response and time course assays. Format: in vivo, Aedes aegypti. As to conditions: Aedes aegypti. As to the method:
Briefly, chemistries were diluted to appropriate concentration in water and added to the wells of 24-well plates containing 5 L3 stage Ae. aegypti larvae to achieve a final concentration of 400, 200, 100, 50 and 25 μM in 1 ml sterile RO water. Chemistries were tested in quadruplicate at each concentration. […] Results reported here represent a minimum of three independent CRC experiments (i.e., n=3).

The target in data set [13] is T3, AaDOP2. The conditions noted are these: single dose 10 μM, transient expression, n=3.
Data set [14] addresses T5, AaDOP1 (Aedes aegypti, UniProt H6D5H1). The conditions noted are these: single dose 10 μM, transient expression, n=3.
The target of data set [15] is T4, Isdop2. As to the kind of experiment: CRE-Luc reporter assay, HEK cells stably expressing Isdop2. Format: cell-based. (In general: Reporter assays use an easily measured gene product as a stand-in for the process of interest.)
Data set [16] addresses T5, AaDOP1. As to the kind of experiment: CRELuc reporter dose-response in HEK293 cells stably expressing AaDOP1. As to conditions: HEK293 cells stably expressing CRELuc reporter and AaDOP1. Format: cell-based.
Data set [17] concerns the target T1, Isdop1. As to the kind of experiment: CRE-Luc reporter assay, HEK cells stably expressing Isdop1. Format: cell-based.
Data set [18] has as its system Ae. aegypti L3 larvae. The conditions noted are these: 400 μM, three independent experiments.
Data set [19] concerns the target T3, AaDOP2. Description: cell-based.
Setting [20] is: 48 h, read-out: Toxicity to Aedes aegypti larvae (mortality) 48 hours, 400 μM, L3 larvae, three independent experiments.
The mark [21] stands for this setting: 72 h, read-out: Toxicity to Aedes aegypti larvae (mortality) 72 hours, 400 μM, L3 larvae, three independent experiments.

Like-named read-outs stand apart in the source and are kept apart here. Where only a bound is given, the exact number is not on record here.

T3 sequence (H6D5H2 entry or part of it): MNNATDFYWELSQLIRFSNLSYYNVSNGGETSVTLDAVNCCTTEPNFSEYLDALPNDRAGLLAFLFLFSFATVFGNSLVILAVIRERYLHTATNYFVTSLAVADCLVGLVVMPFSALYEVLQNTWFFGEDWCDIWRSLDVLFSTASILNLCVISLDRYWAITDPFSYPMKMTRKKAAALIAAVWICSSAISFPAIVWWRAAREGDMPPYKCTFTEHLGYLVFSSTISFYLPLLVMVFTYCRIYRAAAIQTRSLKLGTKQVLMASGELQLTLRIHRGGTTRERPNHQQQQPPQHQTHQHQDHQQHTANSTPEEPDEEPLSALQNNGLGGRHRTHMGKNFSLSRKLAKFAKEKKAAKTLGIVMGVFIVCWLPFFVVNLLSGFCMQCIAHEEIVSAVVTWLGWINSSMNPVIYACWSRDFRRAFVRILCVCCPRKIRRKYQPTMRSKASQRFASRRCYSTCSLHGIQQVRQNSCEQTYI
T4 sequence (A0ACM8DGL0 entry or part of it): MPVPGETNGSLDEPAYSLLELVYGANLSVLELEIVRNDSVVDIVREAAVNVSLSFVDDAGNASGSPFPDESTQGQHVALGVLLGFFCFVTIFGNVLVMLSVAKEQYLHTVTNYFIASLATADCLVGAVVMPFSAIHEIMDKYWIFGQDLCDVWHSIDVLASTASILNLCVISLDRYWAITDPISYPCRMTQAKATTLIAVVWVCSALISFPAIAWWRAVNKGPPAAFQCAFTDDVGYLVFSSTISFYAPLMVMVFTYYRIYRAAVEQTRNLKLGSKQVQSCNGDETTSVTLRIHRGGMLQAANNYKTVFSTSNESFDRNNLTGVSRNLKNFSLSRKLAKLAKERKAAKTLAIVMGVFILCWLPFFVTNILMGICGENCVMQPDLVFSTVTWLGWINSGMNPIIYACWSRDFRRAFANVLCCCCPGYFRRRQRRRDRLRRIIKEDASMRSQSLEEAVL
T2 sequence (P21728 whole entry): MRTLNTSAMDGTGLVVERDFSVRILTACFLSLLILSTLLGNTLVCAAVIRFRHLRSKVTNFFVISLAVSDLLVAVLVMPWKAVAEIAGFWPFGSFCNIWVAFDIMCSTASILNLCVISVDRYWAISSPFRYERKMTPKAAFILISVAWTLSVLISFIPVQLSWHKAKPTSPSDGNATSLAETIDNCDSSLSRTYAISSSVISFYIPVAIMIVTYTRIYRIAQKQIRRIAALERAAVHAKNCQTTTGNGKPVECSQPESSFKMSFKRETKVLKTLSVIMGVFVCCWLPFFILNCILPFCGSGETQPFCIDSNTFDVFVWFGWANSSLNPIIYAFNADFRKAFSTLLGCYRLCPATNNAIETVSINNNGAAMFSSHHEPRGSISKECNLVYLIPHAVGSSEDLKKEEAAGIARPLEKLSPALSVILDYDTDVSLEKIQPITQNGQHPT
T5 sequence (H6D5H1 entry or part of it): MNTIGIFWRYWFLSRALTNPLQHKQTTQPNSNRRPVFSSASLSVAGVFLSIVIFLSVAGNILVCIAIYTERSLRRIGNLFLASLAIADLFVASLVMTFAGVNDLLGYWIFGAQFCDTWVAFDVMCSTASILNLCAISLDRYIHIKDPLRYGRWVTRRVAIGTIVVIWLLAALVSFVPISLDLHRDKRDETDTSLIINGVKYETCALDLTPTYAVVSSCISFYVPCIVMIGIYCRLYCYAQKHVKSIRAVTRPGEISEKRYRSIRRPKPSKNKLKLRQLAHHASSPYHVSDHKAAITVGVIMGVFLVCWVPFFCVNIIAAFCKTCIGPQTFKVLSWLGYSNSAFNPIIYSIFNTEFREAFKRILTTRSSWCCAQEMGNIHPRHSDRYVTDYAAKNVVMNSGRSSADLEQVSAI

Consider `CN(C)CCC=C1c2ccccc2CCc2ccccc21` [Amitriptyline, (3-(10,11-dihydro-5H-dibenzo[a,d][7]annulen-5-ylidene)-N,N-dimethylpropan-1-amine)], for which the mortality at 400 µM with Ae. aegypti larvae stood at 93%; with Ae. aegypti L3 larvae [8] (24 h, read-out: Toxicity to Aedes aegypti larvae (mortality) 24 hours, 400 μM, L3 larvae, three independent experiments), 63%; in the data set on Ae. aegypti L3 larvae [8] (setting [20]), 87%; with Ae. aegypti L3 larvae [8] (setting [21]) it was 93%. In addition, the IC50 amounted to 77000 nM at Isdop1 [1]; 470 ± 49 nM in data set [2] (read-out: IC50 value (at 100 nM dopamine for hD1), 100 nM dopamine, direct cAMP accumulation); 14 nM at AaDOP2 [3] (read-out: Affinity (Aedesdop2), values equal the Table 3 IC50 values); 6.5 ± 0.92 nM on AaDOP2 [5] (AaDOP2 expressing cells in the presence of dopamine, No Inhibition = <10% inhibition at 3 μM test compound, read-out: IC50 ± S.E.M. (nM), HTRF cAMP assay); 7 nM on AaDOP2 [5] (Avg IC50 (μM), in vitro Concentration Response Curve assay, n = 2, relative to control antagonist Amitriptyline); 2900 nM on Isdop2 [6]. For the same compound, the “Relative fold selectivity for AaDOP2 vs. hD1” value on AaDOP2 [3] (ratio of IC50 values hD1/AaDOP2) was found to be 36 fold. Moreover, the “% of the SCH23390 effect” value at AaDOP2 [4] came to 90%. At Isdop2 [7], the inhibition at 10 µM is 87%. Also, the “% Mortality 24 hrs” value came out at 5% in data set [9] and 3% in data set [10]. Also, the “% Mortality 48 hrs” value in [9] and in data set [10] was 20% throughout. Moreover, the “% Mortality 72 hrs” value is 25% in data set [9] and 23% in [10]. The “% Mortality 120 hrs” value in data set [9] and in data set [10] was 30% in each case. Moreover, the “% Mortality 240 hrs” value in data set [9] came to 35%. Moreover, the mortality at 100 µM came to 40% in data set [11] (24 h, read-out: % Mortality 24 hrs) and 70% in [11] (240 h, read-out: % Mortality 240 hrs). Also, the mortality at 100000 µM in [11] (48 h, read-out: % Mortality 48 hrs) stood at 40%; in [11] (72 h, read-out: % Mortality 72 hrs), 60%; in data set [11] (120 h, read-out: % Mortality 120 hrs), 70%. For the same compound, in the data set with Ae. aegypti L3 larvae [12], the 50% lethal concentration (LC50) amounted to 78000 nM.
On to `NCCc1ccc(O)c(O)c1` [Dopamine], for which the “increase of intracellular cAMP, AaDOP2” value at AaDOP2 [13] was determined as 48±14 fold. At AaDOP1 [14], the “increase of intracellular cAMP, AaDOP1” value is 2.7±0.6 fold. Further, the values for the EC50 at Isdop2 [15], at AaDOP1 [16] and at Isdop1 [17] were roughly 145 nM, 3.1 ± 1.1 nM and roughly 31 nM, respectively.
For the compound `CSc1ccc2c(c1)C(N1CCN(C)CC1)Cc1ccccc1S2` (centres unmarked) [Methiothepin, (1-methyl-4-(8-(methylthio)-10,11-dihydrodibenzo-[b,f]thiepin-10-yl)piperazines)], the “Toxicity to Aedes aegypti larvae (mortality) 24 hours” value in the data set on Ae. aegypti L3 larvae [18] turned out to be 100%. Also, the IC50 at Isdop1 [1] turned out to be 950 nM; in data set [2] it was 80 ± 11 nM; on AaDOP2 [19], 14 ± 5.1 nM; on Isdop2 [6], 85 nM. Besides, the “Relative fold selectivity for AaDOP2 vs. hD1” value at AaDOP2 [3] is listed as 5.7 fold. Further, the “% of the SCH23390 effect” value on AaDOP2 [4] came to 99%. Further, the inhibition at 10 µM at Isdop2 [7] is 100%. The mortality at 400 µM with Ae. aegypti L3 larvae [8] (0.5 h, read-out: percent mortality 0.5 hr, 400 uM, L3 larvae, value for this scoring time) was 10%; in the data set with Ae. aegypti L3 larvae [8] (1 h, read-out: percent mortality 1 hr, 400 uM, L3 larvae, per scoring time), 0%; in the data set with Ae. aegypti L3 larvae [8] (2 h, read-out: percent mortality 2 hr, 400 uM, L3 larvae, per scoring time), 20%; with Ae. aegypti L3 larvae [8] (3 h, read-out: mortality within three hours, 400 μM, L3 larvae), greater than 70%; in the data set with Ae. aegypti L3 larvae [8] (3 h, read-out: percent mortality 3 hr, 400 uM, L3 larvae, per scoring time), 0%; in the data set with Ae. aegypti L3 larvae [8] (4 h, read-out: percent mortality 4 hr, 400 uM, L3 larvae, per scoring time) it was 0%. Moreover, the mortality at 400 µM was determined as 0% in the data set with Ae. aegypti L3 larvae [8] (24 h, read-out: percent mortality 24 hr, 400 uM, L3 larvae, per scoring time); 100% in the data set with Ae. aegypti L3 larvae [8] (setting [20]); 0% with Ae. aegypti L3 larvae [8] (48 h, read-out: percent mortality 48 hr, 400 uM, L3 larvae, per scoring time); 100% in the data set on Ae. aegypti L3 larvae [8] (72 h, read-out: Cumulative % Mortality (72 hrs), 400 uM, L3 larvae); 100% in the data set with Ae. aegypti L3 larvae [8] (setting [21]); 0% with Ae. aegypti L3 larvae [8] (72 h, read-out: percent mortality 72 hr, 400 uM, L3 larvae, per scoring time).
The compound `Oc1ccc(C=Cc2cc(O)cc(O)c2)cc1` [Resveratrol] had an IC50 at AaDOP2 [19] of no less than 10000 nM. At AaDOP2 [4], the “% of the SCH23390 effect” value was 89%. In addition, the inhibition at 10 µM on Isdop2 [7] is 100%.

In general, mortality refers to the percentage killed. Usually inhibition stands for how much of the control response was suppressed. As usually defined, the LC50 is the concentration that kills 50% of the test population. The low end stands for greater toxicity, the high end for lower toxicity. As a reminder, the EC50 is the concentration giving half of the maximal effect. Low values mean higher potency in that assay, high ones lower potency in that assay.
